Test results from PubChem BioAssay (NCI).
Values joined by “and” are separate entries in the source; they are usually repeats but may differ in a detail not shown here. Equal values may be shown once.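 48-hour exposure; five concentrations; linearly interpolated endpoints. GI50 marks 50% less growth. TGI is the concentration that stops growth completely.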

How the values were obtained:
Assay in all cases: DTP human tumour cell line panel, 48 h
[1] = tested on: SK-MEL-2 melanoma
[2] = tested on: MCF7 breast
[3] = tested on: SR leukemia
[4] = tested on: OVCAR-5 ovarian
[5] = tested on: OVCAR-8 ovarian
[6] = tested on: UACC-257 melanoma
[7] = tested on: A498 renal
[8] = tested on: HOP-92 NSCLC
[9] = tested on: TK-10 renal
[10] = tested on: NCI-H23 lung

SMILES | GI50 [1] | TGI [1] | GI50 [2] | TGI [2] | GI50 [3] | GI50 [4] | TGI [4] | GI50 [5] | TGI [5] | GI50 [6] | TGI [6] | GI50 [7] | TGI [7] | GI50 [8] | TGI [8] | GI50 [9] | TGI [9] | GI50 [10] | TGI [10] | TGI [3]
Nc1n[nH]c2ccc([C@H]3[C@@H]4C5CCC(C5)[C@@H]4c4c(ccc5[nH]ncc45)N3S(=O)(=O)C3CC3)cc12 (some centres undefined) | 0.343 µM | 14.5 µM | 0.2 µM | > 35.9 µM | 0.15 µM | 0.272 µM | 26.1 µM | 0.213 µM | > 41.1 µM | 8.04 µM | > 47.5 µM | 0.108 µM | 0.384 µM | 0.422 µM | 11.1 µM | 3.98 µM | 36.4 µM | 0.225 µM | 9.31 µM | –
COc1ccc2c(c1)OC(N)=C(C#N)C2c1ccc(F)c(F)c1 (centres undefined) | 0.343 µM | > 93.7 µM | 0.333 µM | > 67.8 µM | 0.325 µM | 2.84 µM | > 100 µM | 0.602 µM | > 44.3 µM | 0.408 µM | > 100 µM | 0.231 µM | 5.96 µM | 6.53 µM | 69.3 µM | 14.7 µM | > 100 µM | 1.15 µM | > 100 µM | > 52.2 µM
O=C(NC(=S)Nc1ccc(-c2nc3ccccc3[nH]2)cc1)c1ccc2ccccc2c1 | 18.3 µM | 48.8 µM | 4.56 µM | > 100 µM | 0.645 µM | 3.75 µM | 16.6 µM | 4.11 µM | > 100 µM | 5.59 µM | > 100 µM | 10.7 µM | 57.8 µM | 2.17 µM | 7.02 µM | 3.33 µM | 8.44 µM | 17.8 µM | > 100 µM | 11.6 µM
CN1CCN(C(=O)OCc2nc3c(N4CCOCC4)nc(-c4ccccc4)nc3n2C)CC1 | 1.85 µM | 3.69 µM | 0.389 µM | 2.11 µM | 0.35 µM | 1.46 µM | 3 µM | 1.17 µM | 3.04 µM | 1.47 µM | 3.17 µM | 1.53 µM | 2.91 µM | 0.765 µM | 2.24 µM | 1.67 µM | 3.12 µM | 1.54 µM | 3.21 µM | > 100 µM
O=C(CSc1nc2ccc([N+](=O)[O-])cc2[nH]1)Nc1ccc([N+](=O)[O-])cc1 | 1.97 µM | 5.81 µM | 1.95 µM | 8.83 µM | 3.15 µM | 2.78 µM | 12.9 µM | 2.79 µM | > 35.7 µM | 1.75 µM | 6.71 µM | 1.34 µM | 3.8 µM | 0.293 µM | 2.22 µM | 3.47 µM | 11 µM | 2.14 µM | 9.51 µM | > 46.4 µM
Nc1nc(N)c2cc(Sc3ccc(Cl)cc3)ccc2n1 | 2.23 µM | 5.53 µM | 1.16 µM | 2.79 µM | 1.37 µM | 2.05 µM | 17.5 µM | 0.961 µM | 2.61 µM | 1.41 µM | 5.72 µM | 3.19 µM | 19 µM | 1.51 µM | 7 µM | 4.91 µM | 17.2 µM | 1.38 µM | 15.6 µM | 5.43 µM
COc1cccc(Nc2ncnn3ccc(CN4CC[C@@H](N)[C@H](O)C4)c23)c1 | 19.9 µM and > 4.7 µM | 39.8 µM and > 7.19 µM | 11.3 µM and > 4.2 µM | 24.5 µM and > 8.69 µM | 5.19 µM and > 4.99 µM | 0.467 µM and 0.357 µM | 32.5 µM and > 10 µM | 2.73 µM and 1.66 µM | 40.3 µM and > 10 µM | 17.5 µM and > 5.79 µM | 34 µM and > 10 µM | 1.12 µM and 0.861 µM | 4.72 µM and 3.75 µM | 0.125 µM and 0.194 µM | 5.21 µM and > 6.86 µM | 0.0322 µM and 0.0167 µM | 1.65 µM and 1.5 µM | 2.53 µM and 3.05 µM | 18.4 µM and > 10 µM | 40.7 µM and > 10 µM
NS(=O)(=O)c1ccc(N=Nc2c(O)[nH]c3cccc(CCc4ccncc4)c23)cc1 | > 25 µM | > 25 µM | > 25 µM | > 25 µM | > 25 µM | > 25 µM | > 25 µM | > 25 µM | > 25 µM | > 25 µM | > 25 µM | > 25 µM | > 25 µM | > 25 µM | > 25 µM | > 25 µM | > 25 µM | > 25 µM | > 25 µM | > 25 µM
CCN1C2=C(SC(=S)C1=C1SC(C(=O)c3ccccc3)=C(C(=O)c3ccccc3)S1)SC(=Nc1ccccc1)C2=O | 7.74 µM | > 47.3 µM | 7.44 µM | > 100 µM | 3.19 µM | > 100 µM | > 100 µM | 2.34 µM | > 67.5 µM | > 100 µM | > 100 µM | 28.1 µM | > 100 µM | 22.5 µM | > 100 µM | 13.3 µM | > 83.7 µM | 5.43 µM | > 100 µM | > 100 µM
CC(C)c1ccc2c(c1)CCC1C(C)(CN)CCCC21C (centres undefined) | – | 3.15 µM | – | 2.82 µM | – | – | 3.33 µM | – | 3.4 µM | – | 3.03 µM | – | 2.78 µM | – | 2.97 µM | – | 3.08 µM | – | 3.36 µM | 2.99 µM
